Assay results taken from patent publication US8709457B2, “Hydroxylated amide skin moisturizer” (L'Oreal, priority 2006, dated 2014).

Tested on: Stratum Corneum
Experiment: Dermometer, mechanical measurement of the plasticizing effect (elastic modulus of Stratum Corneum)
Details: for plasticizing effect on the stratum corneum (in words) / ranking of plasticizing effect among tested compounds: 3% aqueous solution, 30° C., 75% RH; for Relative variation in the elastic modulus of Stratum Corneum, 2H / Relative variation in the elastic modulus of Stratum Corneum, 20H: 30° C. and 75% relative humidity, products tested at 3% in water (controls in water), mean ± standard deviation, 10 samples; for Relative variation in the elastic modulus of Stratum Corneum, 2H: 2 h after application; for Relative variation in the elastic modulus of Stratum Corneum, 20H: 20 h after application
Method: A test was performed to evaluate the moisturizing potential of the compounds of the invention which are formulated in a 3% aqueous solution.
Dermometer, mechanical measurement of the plasticizing effect (described by J de Rigal, J-L. Leveque, International Journal of Cosmetic Science, 1982, 247-260).
The tests carried out were performed under the standard conditions on stratum corneum in a chamber at controlled temperature and humidity (T=30° C. and RH=75%). The elastic modulus measurements are performed on each control test specimen and then 2 hours and 20 hours after application of the treatment. The relative variation in the modulus makes it possible to assess the plasticizing effect of the active agent on the Stratum Corneum.
The mean and the standard deviation were calculated on 10 stratum corneum samples.

Structure (SMILES) | plasticizing effect on the stratum corneum (in words) | ranking of plasticizing effect among tested compounds | Relative variation in the elastic modulus of Stratum Corneum, 2H | Relative variation in the elastic modulus of Stratum Corneum, 20H
O=C([C@H](O)[C@H](O)CO)N(CCO)CCO [Compound 14, (2R,3R)-2,3,4-trihydroxy-N,N-bis(2-hydroxyethyl)butanamide] | significant plasticizing effect | most effective | −23 +/− 18% | −49 +/− 14%
NC(N)=O [Urea, reference compound] |  |  | −72 ± 9% | −83 ± 7%
O=C(NCCO)[C@H](O)[C@H](O)CO [Compound 9, (2R,3R)-2,3,4-trihydroxy-N-(2-hydroxyethyl)butanamide] | significant plasticizing effect |  | −26 +/− 14% | −27 +/− 16%
C[Si](C)(C)CNC(=O)[C@H](O)[C@H](O)CO [Compound 5, (2R,3R)-2,3,4-trihydroxy-N-[(trimethylsilyl)methyl]butanamide] | significant plasticizing effect |  | −34 +/− 15% | −31 +/− 18%
OCC(O)CO [Glycerol, reference compound] |  |  | −41 ± 12% | −51 ± 15%
CCN(CCO)C(=O)[C@H](O)[C@H](O)CO [Compound 15, (2R,3R)—N-ethyl-2,3,4-trihydroxy-N-(2-hydroxyethyl)butanamide] | significant plasticizing effect | most effective | -28 +/− 10% | −48 +/− 12%
NC(=O)[C@H](O)[C@H](O)CO [Compound 3, (2R,3R)-2,3,4-Trihydroxybutanamide] | significant plasticizing effect |  | −32 +/− 18% | −34 +/− 15%
